The values that follow come from patent US12264156B2, “Compounds and pharmaceutical compositions thereof for the treatment of diseases” (GALAPAGOS NV, priority 2018, dated 2025).

One experiment concerns the target T1, SIK1 (Homo sapiens, UniProt P57059).
T1 construct: purchased Carna Biosciences 02-131
The experiment in a line: ADP-Glo kinase assay, SIK1. It counts as biochemical. Particulars: ADP-Glo SIK kinase assay. Put shortly: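 ADP-Glo, RT throughout. Enz/substrate + ATP, 120 min; ADP-Glo reagent 40 min (ATP depletion); detection reagent 30 min; luminescence read. Neg ctrl 1% DMSO, pos ctrl 10 μM staurosporine, final concs.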
On the technique in general: In ADP-Glo the light output rises with the ADP produced.

Experiment [1] has as its system LPS triggered IL-10 secretion in monocyte-derived macrophages (MdM). Briefly: MdM assay: LPS-triggered IL-10 (ELISA). It is filed as cell-based, human. Conditions: LPS 200 ng/mL, supernatant after 2 h, maximal fold change vs LPS only. The protocol:
SIK inhibition inhibits TNFα and increases IL-10 release in LPS triggered monocyte-derived macrophages (MdM) and dendritic […] al. 2012; Sundberg et al. 2014; Ozanne et al. 2015). This assay evaluates illustrative compounds of the invention for their inhibition of LPS-induced TNFα and LPS triggered IL-10 secretion in monocyte-derived macrophages. PBMCs are isolated from human blood samples (buffycoats). The buffy coat is aseptically transferred into a 50 mL Falcon tube, and diluted 1/2 in PBS. Falcon tubes are filled with 20 mL LymphoprepTM, on top of which 25 mL of the buffy coat is carefully added, tubes are centrifuged for 35 min at 400 g in temperature controlled centrifuge, without brake, at 25° C. PBMCs are aspirated from the white interface layer between sample and LymphoprepTM. PBMCs are washed five times in PBS. Cells are resuspended in RPMI 1640 complete medium supplemented with 10% FBS, 1% P/S, and cell density is determined using a hematologic analyzer (Sysmex XS-500i). PBMCs are centrifuged at 300×g for 10 min and resuspended at a density of 1.0*10^7 cells/80 μL Miltenyi buffer (PBS, pH 7.4, 1% FBS, 2 mM EDTA). Starting from this point of the protocol all steps are performed on ice. 20 μL of CD14+ micro-beads are added per 1.0*10^7 cells, the tube is mixed and incubated for 15 min in the fridge at 4° C. Cell suspension volume is adjusted to total volume of 100 mL using Miltenyi buffer, mixed gently and subsequently centrifuged for 10 min at 300×g. Supernantant is discarded and cell pellet is resuspended in 12 mL of Miltenyi buffer. Four LS columns are placed in the MACS Separator (magnet) from Miltenyi Biotec, and are prewet by rinsing with 3 mL of MACS buffer per column. Three mL of cell suspension is added onto the column (max 1*10^8 of labelled cells/column), and columns are subsequently washed 3 times with 3 mL of Miltenyi buffer. The columns are removed from the magnets, and 5 mL of Miltenyi buffer are added to the column to flush out the CD14+ fraction by pushing the plunger into the column. The flushed fractions are collected in a fresh 50 mL Falcon and volume is adjusted to 30 mL using Miltenyi buffer, cells are centrifuged for 10 min at 300×g. The obtained cell pellet is resuspended in 10 mL RPMI w/o FBS, and cell density is determined using a hematologic analyser (Sysmex XS-500i). 100 000 cells are seeded per well of a 96-well plate for differentiation to MdM in RPMI 1640 medium supplemented with 10% FBS, 1% P/S and 100 ng/mL rhM-CSF. On day 5 the medium is refreshed with 100 μL RPMI 1640 medium supplemented with 10% FBS, 1% P/S and 100 ng/mL rhM-CSF. On day 10, MdMs are triggered and compound is added. A compound dilution plate is made in 100% DMSO by 3-fold dilution of 10 mM stock solution. An intermediate dilution plate (10× final concentration) is made by diluting the compound dilution plate 50-fold in RPMI medium. Medium is carefully removed from cell plates using multichannel pipette, and replaced by 80 μL fresh medium. 10 μL of the 10× final concentration compound is added to the cells and incubated for 1 hour at 37° C. before addition of trigger. No trigger conditions/trigger conditions are spiked with equal final DMSO concentrations of 0.2% DMSO. 10 μL of 10×LPS (final conc. 200 ng/mL) solution are added to all wells except for the 'no trigger wells' where 10 μL medium is added. Supernatant is collected after 2 h (IL-10 determination) and after 20 h (TNFα determination) of LPS triggering. […]
(In an ELISA, binding on a coated surface is turned into a signal by an enzyme label.)

Each structure is given as a SMILES string. Some results are limits rather than exact numbers.

By IC50 is commonly meant the concentration that gives 50% inhibition.

T1 sequence (P57059 whole entry): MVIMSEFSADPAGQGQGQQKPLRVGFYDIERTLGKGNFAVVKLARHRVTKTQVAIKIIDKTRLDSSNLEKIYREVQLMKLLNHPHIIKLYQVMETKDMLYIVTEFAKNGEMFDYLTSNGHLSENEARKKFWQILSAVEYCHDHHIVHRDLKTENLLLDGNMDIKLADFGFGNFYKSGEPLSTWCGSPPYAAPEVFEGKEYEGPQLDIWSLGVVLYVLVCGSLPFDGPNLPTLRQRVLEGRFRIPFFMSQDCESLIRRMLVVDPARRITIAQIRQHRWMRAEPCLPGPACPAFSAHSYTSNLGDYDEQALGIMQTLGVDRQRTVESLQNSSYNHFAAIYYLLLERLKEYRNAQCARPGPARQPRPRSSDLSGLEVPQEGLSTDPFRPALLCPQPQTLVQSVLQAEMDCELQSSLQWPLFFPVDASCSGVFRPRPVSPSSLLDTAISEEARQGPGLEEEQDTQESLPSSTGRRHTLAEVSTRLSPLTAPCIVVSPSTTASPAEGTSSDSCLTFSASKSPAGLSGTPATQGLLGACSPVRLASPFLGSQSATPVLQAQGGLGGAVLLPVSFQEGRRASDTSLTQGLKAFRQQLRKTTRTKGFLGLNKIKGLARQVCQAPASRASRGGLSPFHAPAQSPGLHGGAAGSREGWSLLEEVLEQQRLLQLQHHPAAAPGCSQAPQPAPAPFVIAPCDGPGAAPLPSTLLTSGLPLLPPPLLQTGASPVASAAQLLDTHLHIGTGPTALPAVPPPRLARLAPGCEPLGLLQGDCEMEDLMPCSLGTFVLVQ

`COc1cc(-c2cnc3cc(OCC4CN(C)C4)ccn23)cc(OC(F)F)c1C(=O)NC1CC1` [Cpd 14, N-cyclopropyl-2-(difluoromethoxy)-6-methoxy-4-[7-[(1-methylazetidin-3-yl)methoxy]imidazo[1,2-a]pyridin-3-yl]benzamide] displayed an IC50 on SIK1 of 10 to 100 nM. For the same molecule, the “IL-10 FCmax median” value in experiment [1] is recorded as “++ (>1.5-4.5)”.

At SIK1, `COc1cc(-c2cnc3cc(OCc4nncn4C)ccn23)cc(OC(F)F)c1C(=O)NC1CC1` [compound 227, N-cyclopropyl-2-(difluoromethoxy)-6-methoxy-4-[7-[(4-methyl-1,2,4-triazol-3-yl)methoxy]imidazo[1,2-a]pyridin-3-yl]benzamide] yielded an IC50 of 100 to 500 nM. Moreover, the “IL-10 FCmax median” value in experiment [1] is “++ (>1.5-4.5)”.

In turn, `COc1cc(-c2cnc3cc(OCCN4CCCCC4)ccn23)cc2c1C(=O)N(CC(F)(F)F)CC2` [compound 40, 8-methoxy-6-[7-[2-(1-piperidyl)ethoxy]imidazo [1,2-a]pyridin-3-yl]-2-(2,2,2-trifluoroethyl)-3,4-dihydroisoquinolin-1-one] yielded an IC50 against SIK1 greater than 500 nM. For the same molecule, the “IL-10 FCmax median” value in experiment [1] is given as “++ (>1.5-4.5)”.

At SIK1, `COc1cc(-c2cnc3cc(OCCCN4CC(O)C4)ccn23)cc(OC(F)F)c1C(=O)NC1CC1` [Cpd 286, N-cyclopropyl-2-(difluoromethoxy)-4-[7-[3-(3-hydroxyazetidin-1-yl)propoxy]imidazo[1,2-a]pyridin-3-yl]-6-methoxy-benzamide] returned a half-inhibitory concentration (IC50) of 10 to 100 nM. Besides, the “IL-10 FCmax median” value in experiment [1] was “++ (>1.5-4.5)”.

`COc1cc(-c2cnc3cc(OCCN(C)C)ccn23)cc(OC(F)F)c1C(=O)NCC(F)(F)F` [compound 166, 2-(difluoromethoxy)-4-[7-[2-(dimethylamino)ethoxy]imidazo[1,2-a]pyridin-3-yl]-6-methoxy-N-(2,2,2-trifluoroethyl)benzamide] returned an IC50 at SIK1 of 100 to 500 nM. In addition, the “IL-10 FCmax median” value in experiment [1] is given as “++ (>1.5-4.5)”.

At SIK1, `COc1cc(-c2cnc3cc(OCC4CN(C)CCO4)ccn23)cc2c1C(=O)N(CC(F)(F)F)CC2` (centres unmarked) [compound 127, 8-methoxy-6-[7-[(4-methylmorpholin-2-yl)methoxy]imidazo[1,2-a]pyridin-3-yl]-2-(2,2,2-trifluoroethyl)-3,4-dihydroisoquinolin-1-one] gave an IC50 of 100 to 500 nM. The “IL-10 FCmax median” value in experiment [1] is reported as “++ (>1.5-4.5)”.

Regarding `COc1cc(-c2cnc3cc(OCCC4CCCN4C)ccn23)cc(OC(F)F)c1C(=O)NC1CC1` (centres unmarked) [compound 17, N-cyclopropyl-2-(difluoromethoxy)-6-methoxy-4-[7-[2-(1-methylpyrrolidin-2-yl)ethoxy]imidazo[1,2-a]pyridin-3-yl]benzamide], the IC50 on SIK1 fell in the range of 10 to 100 nM. In addition, in experiment [1], the “IL-10 FCmax median” value is listed as “++ (>1.5-4.5)”.

The molecule `CCOC(=O)C1(F)CCN(CC(O)COc2ccn3c(-c4cc(OC)c(C(=O)NC5CC5)c(OC(F)F)c4)cnc3c2)CC1` (centres unmarked) [compound 384, ethyl 1-[3-[3-[4-(cyclopropylcarbamoyl)-3-(difluoromethoxy)-5-methoxy-phenyl]imidazo[1,2-a]pyridin-7-yl]oxy-2-hydroxy-propyl]-4-fluoro-piperidine-4-carboxylate] gave an IC50 on SIK1 of 10 to 100 nM. Besides, in experiment [1], the “IL-10 FCmax median” value is reported as “++ (>1.5-4.5)”.

Take `COc1cc(-c2cnc3cc(OCC(C)(C)N)ccn23)cc(OC(F)F)c1C(=O)NC1CC1` [compound 104, 4-[7-(2-amino-2-methyl-propoxy)imidazo[1,2-a]pyridin-3-yl]-N-cyclopropyl-2-(difluoromethoxy)-6-methoxy-benzamide]: the IC50 at SIK1 lay within 100 to 500 nM. Further, in experiment [1], the “IL-10 FCmax median” value is listed as “+ (≤1.5)”.

In turn, `COc1cc(-c2cnc3cc(OCCN)ccn23)cc(OC(F)F)c1C(=O)NC1CC1` [compound 118, 4-[7-(2-aminoethoxy)imidazo[1,2-a]pyridin-3-yl]-N-cyclopropyl-2-(difluoromethoxy)-6-methoxy-benzamide] yielded an IC50 against SIK1 of 10 to 100 nM. Besides, the “IL-10 FCmax median” value in experiment [1] was “++ (>1.5-4.5)”.

`COc1cc(-c2cnc3cc(OCC4CN(C)C4)ccn23)cc2c1C(=O)N(CC(F)(F)F)CC2` [compound 39, 8-methoxy-6-[7-[(1-methylazetidin-3-yl)methoxy]imidazo[1,2-a]pyridin-3-yl]-2-(2,2,2-trifluoroethyl)-3,4-dihydro isoquinolin-1-one] yielded an IC50 at SIK1 of 100 to 500 nM. Moreover, the “IL-10 FCmax median” value in experiment [1] is given as “++ (>1.5-4.5)”.

At SIK1, `CCN(CC)CCOc1ccn2c(-c3cc(OC)c(C(=O)NC4CC4)c(OC(F)F)c3)cnc2c1` [compound 107, N-cyclopropyl-4-[7-[2-(diethylamino)ethoxy]imidazo[1,2-a]pyridin-3-yl]-2-(difluoromethoxy)-6-methoxy-benzamide] gave an IC50 of 100 to 500 nM. Also, in experiment [1], the “IL-10 FCmax median” value is on record as “+ (≤1.5)”.

As for `COc1cc(-c2cnc3cc(OCC4CCCCN4C)ccn23)cc(OC(F)F)c1C(=O)NC1CC1` (centres unmarked) [compound 23, N-cyclopropyl-2-(difluoromethoxy)-6-methoxy-4-[7-[(1-methyl-2-piperidyl)methoxy]imidazo[1,2-a]pyridin-3-yl]benzamide], on SIK1, the IC50 fell in the range of 100 to 500 nM. Besides, the “IL-10 FCmax median” value in experiment [1] was “++ (>1.5-4.5)”.

`COc1cc(-c2cnc3cc(OC[C@@H]4CN(C)CCO4)ccn23)cc2c1C(=O)N(CC(F)(F)F)CC2` [compound 191, 8-methoxy-6-[7-[[(2S)-4-methylmorpholin-2-yl]methoxy]imidazo [1,2-a]pyridin-3-yl]-2-(2,2,2-trifluoroethyl)-3,4-dihydroisoquinolin-1-one] displayed an IC50 at SIK1 of 100 to 500 nM. Moreover, the “IL-10 FCmax median” value in experiment [1] is on record as “++ (>1.5-4.5)”.

`COc1cc(-c2cnc3cc(OCc4cnco4)ccn23)cc2c1C(=O)N(CC(F)(F)F)CC2` [compound 126, 8-methoxy-6-[7-(oxazol-5-ylmethoxy)imidazo[1,2-a]pyridin-3-yl]-2-(2,2,2-trifluoroethyl)-3,4-dihydroisoquinolin-1-one] came in with an IC50 on SIK1 of 100 to 500 nM. Also, the “IL-10 FCmax median” value in experiment [1] was “+ (≤1.5)”.

For `COc1cc(-c2cnc3cc(OC(C)C(F)(F)F)ccn23)cc(OC(F)F)c1C(=O)NC1CC1` (centres unmarked) [compound 45, N-cyclopropyl-2-(difluoromethoxy)-6-methoxy-4-[7-(2,2,2-trifluoro-1-methyl-ethoxy)imidazo[1,2-a]pyridin-3-yl]benzamide], at SIK1, the IC50 was in the range of 100 to 500 nM. The “IL-10 FCmax median” value in experiment [1] was “+ (≤1.5)”.

`COc1cc(-c2cnc3cc(OCCN4CCCC4)ccn23)cc2c1C(=O)N(CC(F)(F)F)CC2` [compound 123, 8-methoxy-6-[7-(2-pyrrolidin-1-ylethoxy)imidazo[1,2-a]pyridin-3-yl]-2-(2,2,2-trifluoroethyl)-3,4-dihydroisoquinolin-1-one]: the IC50 against SIK1 is greater than 500 nM. Moreover, in experiment [1], the “IL-10 FCmax median” value is recorded as “++ (>1.5-4.5)”.

In turn, `CNCCOc1ccn2c(-c3cc(OC)c(C(=O)NC4CC4)c(OC(F)F)c3)cnc2c1` [compound 117, N-cyclopropyl-2-(difluoromethoxy)-6-methoxy-4-[7-[2-(methylamino)ethoxy]imidazo[1,2-a]pyridin-3-yl]benzamide] returned an IC50 at SIK1 of 10 to 100 nM. Further, the “IL-10 FCmax median” value in experiment [1] is reported as “++ (>1.5-4.5)”.

Consider `CNc1cc(-c2cnc3cc(OCCN(C)C)ccn23)cc(OC(F)F)c1C(=O)NCC(F)(F)F` [Cpd 165, 2-(difluoromethoxy)-4-[7-[2-(dimethylamino)ethoxy]imidazo[1,2-a]pyridin-3-yl]-6-(methylamino)-N-(2,2,2-trifluoroethyl)benzamide], for which the IC50 against SIK1 fell in the range of 100 to 500 nM. The “IL-10 FCmax median” value in experiment [1] is reported as “++ (>1.5-4.5)”.
